Laboratory results taken from patent publication US11077115B2, “Rorgamma modulators and uses thereof” (Genfit, priority 2017, dated 2021).
Counter-ions that a name gives are not always drawn.

What was measured:
[1] = target: T1, RORγt ligand-binding domain (RORγt-LBD) (Homo sapiens, UniProt P51449); experiment: Time-resolved FRET (TR-FRET) RORγt coactivator assay (RIP140 peptide displacement); type: biochemical; conditions: ligand-dependent coactivator-RORγt binding
T1 construct: 20 nM recombinantly expressed RORγ-LBD fused to GST
T1 sequence (P51449 269-508 limits assumed): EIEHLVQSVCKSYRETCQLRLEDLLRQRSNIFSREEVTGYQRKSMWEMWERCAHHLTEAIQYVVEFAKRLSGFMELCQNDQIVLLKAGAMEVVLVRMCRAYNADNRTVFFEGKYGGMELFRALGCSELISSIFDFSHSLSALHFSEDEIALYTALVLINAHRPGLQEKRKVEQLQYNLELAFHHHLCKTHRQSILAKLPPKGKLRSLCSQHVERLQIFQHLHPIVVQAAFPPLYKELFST
From the text: Time-resolved FRET (TR-FRET) RORγt coactivator assay was used to identify RORγ modulator compounds with ligand-dependent coactivator displacement. The assay uses a d2-labeled anti-GST antibody, synthetic N-terminally biotinylated peptide which is derived from nuclear receptor coactivator protein RIP140, and a RORγt ligand-binding domain (RORγt-LBD) that is tagged with glutathione-S-transferase (GST). The influence of compounds on the RORγ-peptide interaction relies on the binding dependent energy transfer from a donor to an acceptor fluorophor attached to the binding partner of interest. […] For reduction of background from compound fluorescence, TR-FRET method makes use of generic fluorophore labels and time resolved detection.
The assays were done in a final volume of 20 μl in a 384 well plate in a CHAPS buffer (2 mM CHAPS; 1 mM DTT, 2 mM EDTA; 0.1% BSA), containing 20 nM recombinantly expressed RORγ-LBD fused to GST, 30 nM N-terminally biotinylated peptide, 1 nM streptavidin-terbium conjugate and 20 nM d2 labeled-anti-GST. Test compounds were diluted using 10 mM stock solution. The range of the final compound concentrations used in this test was from 0.3 nM to 30 μM (logarithmic scale). DMSO content of the samples was kept at 1%. The assay was equilibrated for 2 hours in the dark at room temperature in 384 well plates (Falcon). The signal was detected by an Ultra384 reader (TECAN). […] Compounds that promote coactivator displacement induce a concentration-dependent decrease in time-resolved fluorescent signal. Data were collected and analyzed using GraphPad Prism software (GraphPad Software V5.02, San Diego Calif. USA). IC50 in μM and E max in % were reported for each compound.

[2] = target: T2, human RORγt (Homo sapiens, UniProt P51449); experiment: RORE Luciferase/RORγt transactivation assay (IL-17 promoter luciferase reporter in COS-7 cells); type: cell-based; parameters: V5-His (named only through the vector pcDNA3.1D/V5-His-TOPO); expressed in transfected cells; host or cells: COS-7 (monkey kidney); conditions: RORγt activity inhibition, luciferase activity in transfected COS-7 cells, 20 h
T2 sequence (P51449 1-497 isoform P51449-2): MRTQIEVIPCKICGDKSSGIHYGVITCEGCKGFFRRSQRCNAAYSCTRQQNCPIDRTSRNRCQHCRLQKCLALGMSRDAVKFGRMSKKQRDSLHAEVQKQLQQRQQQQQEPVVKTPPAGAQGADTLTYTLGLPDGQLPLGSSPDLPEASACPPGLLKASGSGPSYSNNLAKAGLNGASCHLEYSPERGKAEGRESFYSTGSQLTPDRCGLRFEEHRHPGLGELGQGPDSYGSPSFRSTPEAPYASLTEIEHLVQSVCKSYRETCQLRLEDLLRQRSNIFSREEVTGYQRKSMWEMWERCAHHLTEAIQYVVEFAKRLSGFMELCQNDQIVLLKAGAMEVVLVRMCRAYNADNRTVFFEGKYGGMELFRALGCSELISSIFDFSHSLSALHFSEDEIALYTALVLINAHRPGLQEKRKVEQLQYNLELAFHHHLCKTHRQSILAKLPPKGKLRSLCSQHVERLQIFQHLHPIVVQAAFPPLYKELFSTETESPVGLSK
Experimental: It is well known that RORγ binds to a conserved non-coding sequence (CNS) enhancer element in the IL-17 promoter.
Culture medium was changed every 2 days.
The 4.3 Kb human IL-17 promoter containing the RORγ-specific CNS enhancer element was PCR amplified from human genomic DNA and cloned into a pGL3-TKLuc2Cp reporter plasmid.
The luciferase reporter plasmid and the RORγt overexpression plasmid were transfected into COS-7 cell line using 4 μL JetPEI™/μg of DNA. Briefly, 150 ng of DNA (ration 1/2 between RORE-Tk Luc2Cp and cDNA RORγt or the empty vector for the negative control) was served to transfect adherent COS-7 cells in a […] culture flask, in complete medium (see cos-7 cell line culture).
Cells were then detached (using trypsin) and washed by centrifugation at 300 g for 10 minutes. Cell pellet was resuspended in serum free/phenol red free DMEM and seeded in 384 well plates at a density of 10000 cells/well and then incubated for 4 h at 37° C.
Compounds were dissolved in 100% DMSO to obtain 10 mM stock solutions. For each compound, test concentrations were diluted in serum free/phenol red free DMEM using the Genesis Freedom 200™ (TECAN) and added to the cells to obtain a 0.3% DMSO final concentration (in a final volume of 40 μL per well).
The luciferase activity was then measured with 40 μL/well steady-Glo Luciferase assay system (Promega, Madison, Wis.) and after incubation at room temperature for 30 minutes. The luminescence was estimated using the Ultra384 reader (TECAN). Data were collected and analyzed using GraphPad Prism software (GraphPad Software V5.02, San Diego Calif. USA). IC50 in μM and E max in % were reported for each compound.

Row | SMILES | IC50 [1] [nM] | IC50 [2] [nM] | melting point [°C]
1 | Cc1ccc(N2CCS(=O)(=O)CC2)cc1CC(=O)NC(c1ccccc1)c1ccccc1N1CCCCC1 (centres unmarked) [Cpd. 2, 2-[5-(1,1-dioxo-1-thiomorpholin-4-yl)-2-methylphenyl]-N-{phenyl[2-(piperidin-1-yl)phenyl]methyl}acetamide] | 1000 to 10000 | 1000 to 10000 | –
2 | Cc1ccc(C(NC(=O)Cc2cc(N3CCS(=O)(=O)CC3)ccc2F)c2ccccc2)c(N2CCOCC2)c1 (centres unmarked) [Cpd. 4, 2-[5-(1,1-dioxo-1-thiomorpholin-4-yl)-2-fluorophenyl]-N-{[4-methyl-2-(morpholin-4-yl)phenyl](phenyl)methyl}acetamide] | 100 to 1000 | 1000 to 10000 | –
3 | Cc1ccc(C(NC(=O)C2(c3ccc(N4CCS(=O)(=O)CC4)cc3)CC2)c2ccc(C)o2)c(C)c1 (centres unmarked) [Cpd. 64, N-[(2,4-dimethylphenyl)(5-methylfuran-2-yl)methyl]-1-[4-(1,1-dioxo-1-thiomorpholin-4-yl)phenyl]cyclopropane-1-carboxamide] | 1000 to 10000 | 100 to 1000 | –
4 | Cc1ccc(C(NC(=O)C(C)(C)c2ccc(N3CCS(=O)(=O)CC3)cc2)c2ccc(C)o2)c(N2CCCCC2)c1 (centres unmarked) [Cpd. 56, 2-[4-(1,1-dioxo-1-thiomorpholin-4-yl)phenyl]-2-methyl-N-{[4-methyl-2-(piperidin-1-yl)phenyl](5-methylfuran-2-yl)methyl}propanamide] | 100 to 1000 | 100 to 1000 | –
5 | Cc1ccc(C(NC(=O)Cc2cnc(N3CCS(=O)(=O)CC3)nc2)c2ccc(C)o2)c(C(F)(F)F)c1 (centres unmarked) (as salt: HCl) [Cpd. 33, 2-[2-(1,1-dioxo-1-thiomorpholin-4-yl)pyrimidin-5-yl]-N-{[4-methyl-2-(trifluoromethyl)phenyl](5-methylfuran-2-yl)methyl}acetamide] | – | – | 224
6 | Cc1ccc(C(NC(=O)Cc2cc(N3CCS(=O)(=O)CC3)ccc2C)c2ccc(C)o2)c(N2CCCCC2)c1 (centres unmarked) (as salt: HCl) [Cpd. 5, 2-[5-(1,1-dioxo-1-thiomorpholin-4-yl)-2-methylphenyl]-N-{[4-methyl-2-(piperidin-1-yl)phenyl](5-methylfuran-2-yl)methyl}acetamide] | – | – | 101
7 | Cc1ccc(C(NC(=O)Cc2cnc(N3CCS(=O)(=O)CC3)nc2)c2ccc(C)o2)c(Cl)c1 (centres unmarked) [Cpd. 51, N-[(2-chloro-4-methylphenyl)(5-methylfuran-2-yl)methyl]-2-[2-(1,1-dioxo-1-thiomorpholin-4-yl)pyrimidin-5-yl]acetamide] | 1000 to 10000 | – | –
8 | COc1ccc(C(NC(=O)Cc2ccc(N3CCS(=O)(=O)CC3)c(C)c2)c2ccc(C)o2)c(N2CC3CC3C2)c1 (centres unmarked) (as salt: HCl) [Cpd. 16, N-[(2-{3-azabicyclo[3.1.0]hexan-3-yl}-4-methoxyphenyl)(5-methylfuran-2-yl)methyl]-2-[4-(1,1-dioxo-1-thiomorpholin-4-yl)-3-methylphenyl]acetamide] | – | – | 103

Results, then the compound that gave them:

Row | IC50 [1] [nM] | IC50 [2] [nM] | melting point [°C] | SMILES
9 | < 1000 | 100 to 1000 | – | Cc1ccc(C(NC(=O)C2(c3cccc(N4CCS(=O)(=O)CC4)c3)CC2)c2ccc(C)o2)c(N2CCCCC2)c1 (centres unmarked) [Cpd. 58, 1-[3-(1,1-dioxo-1-thiomorpholin-4-yl)phenyl]-N-{[4-methyl-2-(piperidin-1-yl)phenyl](5-methylfuran-2-yl)methyl}cyclopropane-1-carboxamide]
10 | 100 to 1000 | 1000 to 10000 | – | Cc1ccc(C(NC(=O)Cc2cc(N3CCOCC3)ccc2F)c2ccccc2)c(N2CCCCC2)c1 (centres unmarked) [Cpd. 8, 2-[2-fluoro-5-(morpholin-4-yl)phenyl]-N-{[4-methyl-2-(piperidin-1-yl)phenyl](phenyl)methyl}acetamide]
11 | < 1000 | 100 to 1000 | – | COc1ccc(C(NC(=O)Cc2cnc(N3CCS(=O)(=O)CC3)nc2)c2ccc(C)o2)c(N2CCCCCC2)c1 (centres unmarked) [Cpd. 45, N-{[2-(azepan-1-yl)-4-methoxyphenyl](5-methylfuran-2-yl)methyl}-2-[2-(1,1-dioxo-1-thiomorpholin-4-yl)pyrimidin-5-yl]acetamide]
12 | 100 to 1000 | 1000 to 10000 | – | Cc1ccc(C(NC(=O)Cc2cnc(N3CCS(=O)(=O)CC3)nc2)c2ccc(C)o2)c(C)c1 (centres unmarked) [Cpd. 35, N-[(2,4-dimethylphenyl)(5-methylfuran-2-yl)methyl]-2-[2-(1,1-dioxo-1-thiomorpholin-4-yl)pyrimidin-5-yl]acetamide]
13 | 100 to 1000 | 1000 to 10000 | – | Cc1ccc(N2CCCCC2)c(C(NC(=O)Cc2cnc(N3CCS(=O)(=O)CC3)nc2)c2ccc(C)o2)c1 (centres unmarked) [Cpd. 17, 2-[2-(1,1-dioxo-1-thiomorpholin-4-yl)pyrimidin-5-yl]-N-{[5-methyl-2-(piperidin-1-yl)phenyl](5-methylfuran-2-yl)methyl}acetamide]
14 | 100 to 1000 | 100 to 1000 | – | COc1ccc(C(NC(=O)Cc2ccc(N3CCS(=O)(=O)CC3)c(C)c2)c2ccc(C)o2)c(N2CCC(C(F)(F)F)CC2)c1 (centres unmarked) [Cpd. 14, 2-[4-(1,1-dioxo-1-thiomorpholin-4-yl)-3-methylphenyl]-N-({4-methoxy-2-[4-(trifluoromethyl)piperidin-1-yl]phenyl}(5-methylfuran-2-yl)methyl)acetamide]
15 | < 1000 | < 100 | – | Cc1ccc(C(NC(=O)Cc2ncc(N3CCS(=O)(=O)CC3)cn2)c2ccc(C)o2)c(N2CCCCC2)c1 (centres unmarked) [Cpd. 65, 2-[5-(1,1-dioxo-1-thiomorpholin-4-yl)pyrimidin-2-yl]-N-{[4-methyl-2-(piperidin-1-yl)phenyl](5-methylfuran-2-yl)methyl}acetamide]
16 | < 1000 | 100 to 1000 | – | Cc1ccc(C(NC(=O)Cc2cnc(N3CCS(=O)(=O)CC3)nc2)c2ccc(C)o2)c(N2CC3CC3C2)c1 (centres unmarked) [Cpd. 36, N-[(2-{3-azabicyclo[3.1.0]hexan-3-yl}-4-methylphenyl)(5-methylfuran-2-yl)methyl]-2-[2-(1,1-dioxo-1-thiomorpholin-4-yl)pyrimidin-5-yl]acetamide]
17 | < 1000 | 100 to 1000 | – | Cc1ccc(C(NC(=O)C2(c3ccc(N4CCS(=O)(=O)CC4)cc3)CCC2)c2ccc(C)o2)c(C)c1 (centres unmarked) [Cpd. 41, N-[(2,4-dimethylphenyl)(5-methylfuran-2-yl)methyl]-1-[4-(1,1-dioxo-1-thiomorpholin-4-yl)phenyl]cyclobutane-1-carboxamide]
18 | < 1000 | 1000 to 10000 | – | Cc1ccc(C(NC(=O)Cc2ccc(O)c(N3CCS(=O)(=O)CC3)c2)c2ccc(C)o2)c(C)c1 (centres unmarked) [Cpd. 43, N-[(2,4-dimethylphenyl)(5-methylfuran-2-yl)methyl]-2-[3-(1,1-dioxo-1-thiomorpholin-4-yl)-4-hydroxyphenyl]acetamide]
